From patent publication US12576030B2, “Compositions for delivery of codon-optimized mRNA” (Translate Bio, Inc., priority 2020, dated 2026)
Entries after “also recorded” stand apart in the source; their conditions may differ.

Test system: male CD1 mice
Assay: Luciferase radiance in lung after pulmonary delivery of FFL mRNA-LNPs
Format: in vivo
Conditions: for potency as determined by the average radiance detected in mouse lungs: FFL mRNA-LNP, single intratracheal administration via nebulization, about 5 hours post-dose
Description: About 150 cationic lipids were tested. (FIG. 7). Each cationic lipid was used in preparing lipid nanoparticles encapsulating mRNA encoding firefly luciferase protein (FFL mRNA) according to methods known in the art. For example, suitable methods for mRNA encapsulation include methods described in International Publication Nos. WO2016/004318 and WO 2018/089801, which is hereby incorporated by reference in its entirety. The tested lipid nanoparticles comprised a lipid component consisting of a cationic lipid, a non-cationic lipid (DOPE), a PEG-modified lipid (DMG-PEG2K), and optionally cholesterol.
Lipid nanoparticle formulations comprising FFL mRNA were administered to male CD1 mice by a single intratracheal administration via nebulization using a Microsprayer®. At approximately 5 hours post-dose, the animals were dosed with luciferin by intraperitoneal injection and all animals were imaged using an IVIS imaging system to measure luciferase production in the lung. […] Some cationic lipids remarkably had greater than 50-fold increase in pulmonary protein expression as compared to other cationic lipids.

Structure (SMILES)	potency as determined by the average radiance detected in mouse lungs	potency as determined by the average radiance detected in mouse lungs (listed as REP-E3-E10)	historical radiance/expression of pulmonary-delivered FFL mRNA in LNP (LNP comprising the named cationic lipid, pulmonary-delivered (e.g., nebulized))
CCCCC/C=C\C/C=C\CCCCCCCC(=O)OCC(COC(=O)CCCCCCC/C=C\C/C=C\CCCCC)(COC(=O)CCCCCCC/C=C\C/C=C\CCCCC)NCCS(=O)(=O)NCCCN(C)C [GL-TES-SA-DMP-E18-2]	performed particularly well; also recorded: particularly high potency	–	–
CCCCCCCCC(O)CN(CCCCC(=O)OCCN1CC(C)N(CCOC(=O)CCCCN(CC(O)CCCCCCCC)CC(O)CCCCCCCC)CC1C)CC(O)CCCCCCCC (centres unmarked) [HEP-E4-E10]	performed particularly well; also recorded: particularly high potency	–	–
CCCCC/C=C\C/C=C\CCCCCCCC(=O)OCC(COC(=O)CCCCCCC/C=C\C/C=C\CCCCC)(COC(=O)CCCCCCC/C=C\C/C=C\CCCCC)NCCS(=O)(=O)NCCN(C)C [GL-TES-SA-DME-E18-2, 2-((2-(N-(2-(dimethylamino)ethyl)sulfamoyl)ethyl)amino)-2-((((9Z,12Z)-octadeca-9,12-dienoyl)oxy)methyl)propane-1,3-diyl (9Z,9′Z,12Z,12′Z)-bis(octadeca-9,12-dienoate)]	performed particularly well; also recorded: particularly high potency	–	–
CCCCCCCCC(O)CN(CCCC(=O)OCCN1CC(C)N(CCOC(=O)CCCN(CC(O)CCCCCCCC)CC(O)CCCCCCCC)CC1C)CC(O)CCCCCCCC (centres unmarked) [HEP-E3-E10]	performed particularly well	particularly high potency	–
CCCCCCCCOC(=O)CC(CC(=O)OCCCCCCCC)(OC(=O)CCN(C)C)C(=O)OCCCCCCCC [TL1-01D-DMA, trioctyl 2-((3-(dimethylamino)propanoyl)oxy)propane-1,2,3-tricarboxylate]	performed particularly well; also recorded: particularly high potency	–	–
CCCCCCCCCCCCCCOC(=O)CC(CC(=O)OCCCCCCCCCCCCCC)(OC(=O)CCN(C)C)C(=O)OCCCCCCCCCCCCCC [TL1-04D-DMA]	performed particularly well; also recorded: particularly high potency	–	–
CC(C)CCCC(C)C1CCC2C3CC=C4CC(OC(=O)CCc5cnc[nH]5)CCC4(C)C3CCC12C (centres unmarked) [ICE, imidazole cholesterol ester, reference compound]	–	–	around 10^4 p/s/cm^2sr
